From patent publication US20240277658A1, “NLRP3 ACTIVATORS FOR USE IN THE TREATMENT OF INFECTIOUS DISEASES OR CANCER BY ACTIVATING NLRP3 INFLAMMASOME” (ALBERT-LUDWIGS-UNIVERSITÄT FREIBURG, priority 2020, published 2024)
“And” between values parts separate entries of the source, which are not always exact repeats. Equal values may be shown once. Read-outs that look alike come from different tables or passages of the source.

How the values were obtained:
BMDCs = assay: LDH release (lytic cell death, pyroptosis) from LPS-primed BMDCs; assay type: cell-based, mouse; settings: for Average (% positive control): LDH release; for cytotoxicity at 50 µM / cytotoxicity at 25 µM / cytotoxicity at 100 µM: Mus musculus, BMDC
Protocol: (§1) This was tested in cell culture in several different in vitro assays classically used to investigate inflammasome activation. These include measuring inflammasome-dependent lytic cell death (pyroptosis) by detecting release of the cytosolic enzyme lactate dehydrogenase (LDH) using a commercial colorimetric assay and release of proinflammatory cytokines like IL-1β by enzyme-linked immunosorbent assay (ELISA), analyzing cleavage and activation of caspase-1 and IL-1β by immunoblotting and immunofluorescence imaging of ASC speck formation. Lytic cell death was determined via LDH release. Assay results for compounds are illustrated in the Tables below, wherein the concentration of the compounds tested had been 50 μM or as indicated in the table, and the concentration of the known activators has been tested with 5 μM of nigericin, 100 μM of each R837 and CL097. For classification of the activity of a given molecule, release of IL-1β was quantified as % of IL-1% of a respective control activator used for the experiment (highlighted in tables with bold letters). The compounds listes in Table 1 were classified into 4 groups depending on their ability to induce the NLRP3 inflammasome activation, assessed by % IL-1β release as compared to the positive control.
(§2) Mouse bone marrow-derived dendritic cells (BMDCs) were isolated from femurs and tibias previously described (Gross, Olaf, 2012, “Measuring the inflammasome”, Methods in molecular biology, Clifton, N.J., 844, pp. 199-222.). In brief, tibias and femurs were carefully removed and put to sterile 70% ethanol for 1 minute. Using a 22-G needle attached to a 20 ml-syringe filled with sterile flushing medium, the bone marrow was pressed through the mesh of a […] cell strainer. The cells were spun down by centrifugation at 400×g, 4° C. for 5 minutes and red blood cells lysed by resuspension and incubation for 5 minutes at room temperature in RBC lysis buffer. 9 ml of flushing medium were added and cells were again spun down by centrifugation at 400×g, 4° C. for 5 minutes. Cells were then resuspended in BMDC medium (RPMI, 10% fetal bovine serum, 1% penicillin-streptomycin100 U/ml, 20 ng/ml recombinant murine GM-CSF), counted and plated at a density of 0.5×10^6 cells ml^−1 in 10 ml medium and incubated at 37° C., 5% CO2 in a humidified incubator. After 2 days, 10 ml of fresh medium were added to the cells and after 4 days, the medium was fully exchanged to 20 ml of fresh medium. The cells were allowed to differentiate for 6 to 8 days before usage.
(§3) For canonical inflammasome activation BMDCs after 7-9 days of differentiation were harvested and counted with a Neubauer Chamber (Hecht Assistant) and the concentration was set to 1 Mio cells ml^−1. 100 μl cell suspension per well were seeded in 96-well plates. The cells were primed with 50 ng ml^−1 E. coli K12 ultra-pure LPS for 3 hours and subsequently treated with canonical inflammasome activators or experimental compounds for 3 hours if not indicated differently (incubation time FIG. 4D, 5, 7, 8, 11, 13-18: 3 h, FIG. 12: 4 h). Concentrations of the stimuli were as follows if not indicated differently: 5 μM nigericin, 100 μM imiquimod (also known as R837), 100 μM CL097, 100 μM R848, […] poly(dA:dT), 300 μg ml^−1 MSU. If an inhibitor was used before stimuli treatment, the inhibitor was added after 2.5 hours of priming and it was incubated for 30 minutes before inflammasome activation. Inhibitors were used as follows: 3 μM MCC950, 45 mM KCl, 30 μM ebselen (2-Phenyl-1,2-benzoselenazol-3-one), 5 μM cytochalasin D (see FIGS. 8, 11, 12 and 17).
(§4) All inflammasome stimulations were performed in three technical replicates for each condition. […]

NLRP3 inflammasome = molecular target: T1, NLRP3 inflammasome (Mus musculus, UniProt Q8R4B8); assay: IL-1β release from LPS-primed BMDCs (ELISA) as readout of NLRP3 inflammasome activation; assay type: cell-based
T1 construct: endogenous in cells; host or cells: primary mouse bone marrow-derived dendritic cells (BMDCs), LPS-primed
T1 sequence (Q8R4B8 whole entry): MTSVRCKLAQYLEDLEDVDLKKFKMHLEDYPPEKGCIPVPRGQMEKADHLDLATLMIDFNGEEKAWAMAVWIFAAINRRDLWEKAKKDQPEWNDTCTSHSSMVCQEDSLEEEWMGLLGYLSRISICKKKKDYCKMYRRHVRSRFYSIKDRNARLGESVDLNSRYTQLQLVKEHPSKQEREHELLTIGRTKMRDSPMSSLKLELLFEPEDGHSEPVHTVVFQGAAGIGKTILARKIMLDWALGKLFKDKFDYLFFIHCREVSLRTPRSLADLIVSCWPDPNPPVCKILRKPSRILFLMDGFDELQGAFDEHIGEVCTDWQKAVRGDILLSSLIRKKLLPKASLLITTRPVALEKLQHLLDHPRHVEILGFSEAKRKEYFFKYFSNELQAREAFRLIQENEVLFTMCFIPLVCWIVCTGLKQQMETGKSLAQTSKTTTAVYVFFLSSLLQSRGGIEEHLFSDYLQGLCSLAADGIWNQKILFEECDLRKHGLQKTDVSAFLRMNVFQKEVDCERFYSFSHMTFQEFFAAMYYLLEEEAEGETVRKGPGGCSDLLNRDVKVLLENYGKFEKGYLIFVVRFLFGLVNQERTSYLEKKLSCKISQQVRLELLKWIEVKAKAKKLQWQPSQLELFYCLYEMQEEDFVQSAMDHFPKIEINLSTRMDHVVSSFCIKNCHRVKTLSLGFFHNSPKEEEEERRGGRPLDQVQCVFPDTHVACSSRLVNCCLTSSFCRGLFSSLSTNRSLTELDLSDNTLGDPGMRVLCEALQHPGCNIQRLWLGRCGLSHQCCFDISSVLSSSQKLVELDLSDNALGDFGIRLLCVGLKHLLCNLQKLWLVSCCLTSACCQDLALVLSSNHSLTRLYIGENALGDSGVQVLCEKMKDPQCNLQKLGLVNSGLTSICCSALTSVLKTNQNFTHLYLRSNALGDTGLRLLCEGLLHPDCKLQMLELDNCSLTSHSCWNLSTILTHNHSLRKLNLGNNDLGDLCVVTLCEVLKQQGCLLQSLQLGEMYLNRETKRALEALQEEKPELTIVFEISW
Protocol: as §1, §2, §3, §4

[1] = compound 50 μM, positive control nigericin 5 μM
[2] = compound 50 μM, LPS-primed BMDCs, read-out: Average LDH release (% of max.)
[3] = single replicates, compound 50 μM, LPS-primed BMDCs, read-out: LDH release (% of max.)
[4] = IL-1β release, compound 50 μM, positive control nigericin 5 μM
[5] = compound 50 μM, LPS-primed BMDCs
[6] = single replicates, compound 50 μM, LPS-primed BMDCs

| SMILES | Average (% positive control) (BMDCs; [1]) | cytotoxicity at 50 µM (BMDCs; [2]) [%] | cytotoxicity at 50 µM (BMDCs; [3]) [%] | Average (% positive control) (NLRP3 inflammasome; [4]) | Average IL-1β (NLRP3 inflammasome; [5]) [ng/mL] | IL-1β (NLRP3 inflammasome; [6]) | other results |
| --- | --- | --- | --- | --- | --- | --- | --- |
| CNC(=O)NCc1cccc(NC(=O)Nc2ccccc2)c1 [L01.132, 3-(3-{[(methylcarbamo-yl)amino]methyl}phen-yl)-1-phenylurea] | 8.791 | 6.43 | 6.46 | 0.920 | 0.066 | 0.062 ng/mL and 0.066 ng/mL and 0.069 ng/mL | – |
| O=C(Nc1ccccc1)Nc1cccc(OC(F)F)c1 [L01.120, 3-[3-(difluoromethoxy)-phenyl]-1-phenylurea] | 33.449 | 24.5 | 25 | 2.800 | 0.201 | 0.207 ng/mL and 0.200 ng/mL and 0.196 ng/mL | – |
| O=C(NCCc1ccccc1)Nc1ccc2ncccc2c1 [EN11-07, 1-(2-phenylethyl)-3-(quinolin-6-yl)urea] | – | – | – | – | – | – | Average (% positive control) (BMDCs; 25 μM, positive control EN22 25 μM): 27.283 % positive control; Average (% positive control) (BMDCs; 50 μM, positive control EN22 25 μM): 28.451 % positive control; Average (% positive control) (BMDCs; 100 μM, positive control EN22 25 μM): 26.529 % positive control; cytotoxicity at 25 µM (BMDCs; 25 μM, EN11 series table, read-out: Average LDH release (% of max.)): 13.9%; cytotoxicity at 25 µM (BMDCs; 25 μM, individual replicate values, EN11 series table, read-out: LDH release (% of max.)): 13.4%; cytotoxicity at 50 µM (BMDCs; 50 μM, EN11 series table, read-out: Average LDH release (% of max.)): 14.5%; cytotoxicity at 50 µM (BMDCs; 50 μM, individual replicate values, EN11 series table, read-out: LDH release (% of max.)): 14.4%; cytotoxicity at 100 µM (BMDCs; 100 μM, individual replicate values, read-out: LDH release (% of max.)): 11.4%; cytotoxicity at 100 µM (BMDCs; 100 μM, read-out: Average LDH release (% of max.)): 13.5%; Average IL-1β (NLRP3 inflammasome; 25 μM, EN11 series table): 0.000 ng/mL; IL-1β (NLRP3 inflammasome; 25 μM, individual replicate values, EN11 series table): 0.000 ng/mL; Average IL-1β (NLRP3 inflammasome; 50 μM, EN11 series table): 0.000 ng/mL; IL-1β (NLRP3 inflammasome; 50 μM, individual replicate values, EN11 series table): 0.000 ng/mL; Average IL-1β (NLRP3 inflammasome; 100 μM): 0.053 ng/mL; IL-1β (NLRP3 inflammasome; 100 μM, individual replicate values): 0.059 ng/mL and 0.052 ng/mL and 0.049 ng/mL; Average (% positive control) (NLRP3 inflammasome; IL-1β, 25 μM, positive control EN22 25 μM): 0.000 % positive control; Average (% positive control) (NLRP3 inflammasome; IL-1β, 50 μM, positive control EN22 25 μM): 0.000 % positive control; Average (% positive control) (NLRP3 inflammasome; IL-1β, 100 μM, positive control EN22 25 μM): 3.621 % positive control |
| N#Cc1ccc(NC(=O)Nc2ccccc2)cc1 [L01.038, 1-(4-cyanophenyl)-3-phenylurea] | 16.337 | 12 | 12.8 | 1.956 | 0.140 | 0.166 ng/mL and 0.127 ng/mL and 0.128 ng/mL | – |
| CS(=O)(=O)c1cc(NC(=O)Nc2ccccc2)ccc1Cl [L01.035, 3-(4-chloro-3-methane-sulfonylphenyl)-1-phenylurea] | 11.044 | 8.08 | 8.46 | 3.211 | 0.230 | 0.321 ng/mL and 0.189 ng/mL and 0.181 ng/mL | – |
| Cc1ccc(NC(=O)Nc2ccccc2)cc1NC(=O)NC1CC1 [L01.028, 3-cyclopropyl-1-{2-methyl-5-[(phenyl-carbamoyl)amino]-phenyl}urea] | 19.825 | 14.5 | 12.6 | 9.988 | 0.716 | 0.686 ng/mL and 0.757 ng/mL and 0.705 ng/mL | – |
